What was measured:
Assay type in all cases: in vivo
Parameters in all cases: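 index 0 to 10 in 10% steps of herbicidal effect with 10 meaning complete death and 0 below 10%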
Echinochloa crus-galli [1] = experiment: Herbicidal activity by field soil treatment (Test example 2); conditions: 1000 g effective component per hectare, day 21 after the treatment
Description: (§1) [table] Test for Determining Herbicidal Activity by Field Soil Treatment A 80 cm^2 wide plastic pot was filled with a field soil and seeds of each of Echinochloa crus-galli, foxtail, Indian millet, and A. retroflexus were sowed and then covered with soil. The wettable powder produced with reference to the Formulation example 1 was diluted water, and applied on the soil surface by using a small sprayer in an amount of 1000 liters per hectare so that the effective component is 1000 g per hectare. After that, the plants were cultivated in a greenhouse, and on day 21 after the treatment, evaluation was made by the criteria described in Table 72 for determining the herbicidal effects.

A. retroflexus [2] = experiment: as above; conditions: 1000 g effective component per hectare, day 21 after the treatment
Description: as §1

Indian millet [3] = experiment: as above; conditions: 1000 g effective component per hectare, day 21 after the treatment
Description: as §1

Monochoria vaginalis = experiment: Herbicidal activity by paddy field soil treatment (Test Example 1); conditions: 1000 g of effective component per hectare, evaluated on day 21 after the treatment, criteria of Table 72
Description: (§2) Test for Determining Herbicidal Activity by Paddy Field Soil Treatment A 100 cm^2 wide plastic pot was filled with a paddy field soil and, after watering and shuffling, seeds of each of Echinochloa oryzicola, Monochoria vaginalis, and Scirpus juncoides Rocxb. were sowed and watered to a depth of 3 cm. On the next day, the wettable powder obtained in view of Formulation example 1 was diluted with water and applied on water surface. The application amount was 1000 g of effective component per hectare. After that, the plants were cultivated in a greenhouse, and on day 21 after the treatment, evaluation was made by the criteria of Table 72 for determining the herbicidal effects. [table]

Scirpus juncoides Rocxb. = experiment: as above; conditions: applied on water surface, 1000 g of effective component per hectare, day 21 after the treatment
Description: as §2

Echinochloa oryzicola = experiment: as above; conditions: 1000 g of effective component per hectare, evaluated on day 21 after the treatment, criteria of Table 72
Description: as §2

A. retroflexus [4] = experiment: Herbicidal activity by field foliage treatment (Test example 3); conditions: 1000 g effective component per hectare, day 14 after the treatment
Description: (§3) [table] Test for Determining Herbicidal Activity by Field Foliage Treatment A 80 cm^2 wide plastic pot was filled with a field soil and seeds of each of Indian millet and A. retroflexus were sowed and then incubated for 2 weeks in a green house. The wettable powder produced with reference to the Formulation example 1 was diluted water, and applied from the air to entire body of the plant as foliage treatment by using a small sprayer in an amount of 1000 liters per hectare so that the effective component is 1000 g per hectare. After that, the plants were cultivated in a greenhouse, and on day 14 after the treatment, evaluation was made by the criteria described in Table 72 for determining the herbicidal effects.

Indian millet [5] = experiment: as above; conditions: 1000 g effective component per hectare, day 14 after the treatment
Description: as §3

Echinochloa crus-galli [6] = experiment: as above; conditions: 1000 g effective component per hectare, day 14 after the treatment
Description: as §3, with “Test example 3” for “[table]”

Row | SMILES | herbicidal effect index, Echinochloa crus-galli (Echinochloa crus-galli [1]) | herbicidal effect index, Amaranthus retroflexus (A. retroflexus [2]) | herbicidal effect index, Abutilon theophrasti (Indian millet [3]) | Herbicidal effects index number, Monochoria vaginalis (Monochoria vaginalis) | herbicidal effect index, S. juncoides Rocxb. (Scirpus juncoides Rocxb.) | Herbicidal effects index number, Echinochloa oryzicola (Echinochloa oryzicola) | herbicidal effect index, Amaranthus retroflexus (A. retroflexus [4]) | herbicidal effect index, Abutilon theophrasti (Indian millet [5]) | herbicidal effect index, Echinochloa crus-galli (Echinochloa crus-galli [6])
1 | Cc1cc(C)cc(-n2c(=O)c(C(=O)C3=C(O)CCCC3=O)nn(C)c2=O)c1 [I-88] | 8 | 10 | 10 | 10 | 10 | 10 | 10 | 9 | 8
2 | Cc1cc(F)cc(-n2c(=O)c(C(=O)C3=C(O)CCCC3=O)nn(C)c2=O)c1 [I-106] | 10 | 10 | 10 | 10 | 10 | 10 | 10 | 9 | 10
3 | Cc1cccc(-n2c(=O)c(C(=O)C3=C(O)CCCC3=O)nn(C)c2=O)c1F [I-107] | 8 | 10 | 10 | 10 | 10 | 10 | 10 | 9 | 7
4 | Cc1cccc(F)c1-n1c(=O)c(C(=O)C2=C(O)CCCC2=O)nn(C)c1=O [I-110] | 7 | 10 | 10 | 10 | 10 | 10 | 9 | 9 | 9
5 | Cc1cc(-n2c(=O)c(C(=O)C3=C(O)CCCC3=O)nn(C)c2=O)ccc1F [I-115] | 9 | 9 | 9 | 10 | 10 | 10 | 10 | 10 | 10
6 | COc1ccc(-n2c(=O)c(C(=O)C3=C(O)CCCC3=O)nn(C)c2=O)cc1Cl [I-119] | 8 | 10 | 9 | 10 | 10 | 9 | 10 | 9 | 9
7 | COc1cc(Cl)cc(-n2c(=O)c(C(=O)C3=C(O)CCCC3=O)nn(C)c2=O)c1 [I-120] | 8 | 10 | 9 | 10 | 10 | 8 | 10 | 9 | 9
8 | Cc1ccc(-n2c(=O)c(C(=O)C3=C(O)CCCC3=O)nn(C)c2=O)cc1Cl [I-125] | 7 | 10 | 8 | 10 | 10 | 10 | 10 | 10 | 10
9 | Cc1cc(-n2c(=O)c(C(=O)C3=C(O)CCCC3=O)nn(C)c2=O)ccc1Cl [I-135] | 9 | 10 | 9 | 10 | 10 | 10 | 10 | 10 | 10
10 | COc1ccc(-n2c(=O)c(C(=O)C3=C(O)CCCC3=O)nn(C)c2=O)cc1C [I-149] | 8 | 10 | 10 | 10 | 10 | 9 | 10 | 10 | 8
11 | Cn1nc(C(=O)C2=C(O)CCCC2=O)c(=O)n(-c2cccs2)c1=O [I-198] | 7 | 10 | 10 | 10 | 10 | 8 | 10 | 10 | 10
12 | CCn1nc(C(=O)C2=C(O)CCCC2=O)c(=O)n(-c2ccccc2)c1=O [I-259] | 10 | 10 | 8 | 10 | 10 | 10 | 10 | 10 | 10
13 | COc1cc(OC)nc(-n2c(=O)c(C(=O)C3=C(O)CCCC3=O)nn(C)c2=O)n1 [I-273] | 9 | 10 | 7 | 9 | 10 | 9 | 10 | 9 | 10
14 | Cc1cccc(-n2c(=O)c(C(=O)C3=C(O)CCCC3=O)nn(C)c2=O)n1 [I-279] | 7 | 10 | 10 | 8 | 10 | 8 | 10 | 10 | 9
15 | COc1ccc(-n2c(=O)c(C(=O)C3=C(O)CCCC3=O)nn(C)c2=O)cn1 [I-287] | 10 | 10 | 9 | 10 | 10 | 10 | 10 | 9 | 8
